Experimental data as given in patent US20220168430A1, “THERAPEUTIC METHODS FOR TREATING HEPATITIS B” (priority 2019, published 2022).
Where “and” joins values, the source holds several entries; their conditions need not be identical. Identical values can stand only once. Like-named read-outs stand apart in the source and are kept apart here.

Legend:
HepG2.2.15 cells = assay type: cell-based, human; details: Cmpd 2 μM: 0.01, 0.0032, 0.001, 0.0003, 0.0001, 0
Text: The combination results were completed in duplicate with each assay consisting of 4 technical repeats.
The combination results were completed in duplicate with each assay consisting of 4 technical repeats. In this assay system, the combination results in additive inhibition of HBV DNA.

HBV rcDNA = experiment: Dual agent combination in HepDE19 cells, rcDNA by Quantigene 2.0 bDNA assay (Examples 5-8); assay type: cell-based, HBV; HepDE19 (HepG2 human hepatocarcinoma derived); details: for EC50: HepDE19, combination studies with Cmpd 1, read-out: Avg. Inhibitor B EC50; for inhibition at 0.01 µM / inhibition at 0.02 µM / inhibition at 0.039 µM / inhibition at 0.156 µM / inhibition at 1.25 µM: HepDE19, Expt 2; for inhibition at 0.01 µM: TDF 0.010 μM alone; for inhibition at 0.02 µM: TDF 0.020 μM alone; for inhibition at 0.039 µM: TDF 0.039 μM alone; for inhibition at 0.156 µM: TDF 0.156 μM alone; for inhibition at 1.25 µM: TDF 1.250 μM alone
Procedure: In vitro dual agent combination studies were conducted using the method of Prichard and Shipman 1990 (Prichard M N, Shipman C, Jr. 1990. Antiviral Res 14:181-205). The HepDE19 cell culture system is a HepG2 (human hepatocarcinoma) derived cell line that supports HBV DNA replication and cccDNA formation under control the control of a CMV Tet-off promoter system (Guo et al. 2007. J Virol 81:12472-84). HepDE19 (50,000 cells/well) were plated in 96 well collagen-coated tissue-culture treated microtiter plates in DMEM/F12 medium supplemented with 10% fetal bovine serum+1% penicillin-streptomycin with tetracycline (1 μg/mL) and incubated in a humidified incubator at 37° C. and 5% CO2 overnight. Next day, the cells were switched to fresh medium without tetracycline and incubated for 4 hrs at 37° C. and 5% CO2. The cells were switched to fresh medium and treated with inhibitor A and inhibitor B, at concentration range spanning their respective EC50 values. […] The two inhibitors were tested both singly as well as in combinations in a checkerboard fashion such that each concentration of inhibitor A was combined with each concentration of inhibitor B to determine their combination effects on inhibition of rcDNA production. There were four replicates of each concentration combination in each experiment. The plates were incubated for 7 days in a humidified incubator at 37° C. and 5% CO2. The level of rcDNA present in the wells was measured using a Quantigene 2.0 bDNA assay kit (Affymetrix, Santa Clara, Calif.) with HBV specific custom probe set (genotype D ayw) and according to the manufacturer's instructions and read using a luminescence plate reader and the relative luminescence units (RLU) data generated from each well was calculated as % inhibition of the untreated control wells and analyzed using the MacSynergy II program to determine whether the combinations were synergistic, additive or antagonistic using the interpretive guidelines established by Prichard and Shipman (Prichard M N, Shipman C, Jr. 1990. […] Each experiment was repeated at least three times and the averages and standard deviations of individual determinations was calculated to derive the conclusion. Concurrently, in each experiment, the effect of inhibitor combinations on cell viability was assessed using replicate plates in triplicates that were used to determine the ATP content as a measure of cell viability using the Cell-Titer Glo reagent (Promega, Madison, Wis.) as per the manufacturer's instructions.

[1] = Hepatitis B virus, read-out: ADDITIVE INHIBITION
[2] = Hepatitis B virus, read-out: AVERAGE % INHIBITION

`COCCCOc1cc2c(nc1OC)-c1cc(=O)c(C(=O)O)cn1[C@H](C(C)C)C2` [Compound 2] was tested, and the “Average percent of cell viability vs control” value (from here on “Average percent”) (HepG2.2.15 cells; ETV 0 μM) was 92.68% and 81.35% and 91.36% and 92.57% and 80.37% and the “Average percent” value (HepG2.2.15 cells; TAF 0 μM) was 104.89% and 104.08% and 103.79% and 101.80% and 99.27%.
`C=C1[C@H](CO)[C@@H](O)C[C@@H]1n1cnc2c(=O)[nH]c(N)nc21` [ETV, entecavir] was tested, and the “SYNERGY PLOT (99%) Bonferroni Adj. 55%” value (HBV rcDNA) was 0, the “ADDITIVE INHIBITION” value (HBV rcDNA; Expt 3, ETV 0.0003 μM alone) was 28.28 and the “ADDITIVE INHIBITION” value (HBV rcDNA; Expt 3, ETV 0.001 μM alone) was 38.31. The “ADDITIVE INHIBITION” value (HBV rcDNA; Expt 3, ETV 0.003 μM alone) was 62.92, the “ADDITIVE INHIBITION” value (HBV rcDNA; Expt 3, ETV 0.008 μM alone) was 88.06 and the inhibition at 0.0003 µM (HBV rcDNA; Hepatitis B virus, HepDE19, Expt 3, ETV 0.0003 μM alone) was 28.3%. The inhibition at 0.001 µM (HBV rcDNA; Hepatitis B virus, HepDE19, Expt 3, ETV 0.001 μM alone, read-out: AVERAGE % INHIBITION) was 38.3%, the inhibition at 0.003 µM (HBV rcDNA; Hepatitis B virus, HepDE19, Expt 3, ETV 0.003 μM alone, read-out: AVERAGE % INHIBITION) was 62.9% and the inhibition at 0.008 µM (HBV rcDNA; Hepatitis B virus, HepDE19, Expt 3, ETV 0.008 μM alone) was 88.1%. The EC50 (HBV rcDNA; Hepatitis B virus) was 1 nM and the “Average percent” value (HepG2.2.15 cells; ETV 3.17E−05 μM) was 101.92%.
For `CC(C)OC(=O)OCOP(=O)(CO[C@H](C)Cn1cnc2c(N)ncnc21)OCOC(=O)OC(C)C.O=C(O)/C=C/C(=O)O` [TDF, tenofovir disoproxil fumarate, reference compound], the “SYNERGY PLOT (99%) Bonferroni Adj. 55%” value (HBV rcDNA) was 0, the “ADDITIVE INHIBITION” value (HBV rcDNA; Expt 1, TDF 0.009 μM alone) was −0.25 and the “ADDITIVE INHIBITION” value (HBV rcDNA; Expt 1, TDF 0.083 μM alone) was 45.88. The “ADDITIVE INHIBITION” value (HBV rcDNA; Expt 1, TDF 0.750 μM alone) was 98, the “ADDITIVE INHIBITION” value (HBV rcDNA; Expt 3, TDF 0.009 μM alone) was 32.54 and the “ADDITIVE INHIBITION” value (HBV rcDNA; Expt 3, TDF 0.083 μM alone) was 76.04. The “ADDITIVE INHIBITION” value (HBV rcDNA; Expt 3, TDF 0.750 μM alone) was 96.97, the inhibition at 0.009 µM (HBV rcDNA; Hepatitis B virus, HepDE19, Expt 1, TDF 0.009 μM alone) was -0.25% and the inhibition at 0.083 µM (HBV rcDNA; Hepatitis B virus, HepDE19, Expt 1, TDF 0.083 μM alone) was 45.9%. For the same molecule, the inhibition at 0.75 µM (HBV rcDNA; Hepatitis B virus, HepDE19, Expt 1, TDF 0.750 μM alone) was 98%, the inhibition at 0.01 µM (HBV rcDNA; [1]) was 4.67% and the inhibition at 0.01 µM (HBV rcDNA; [2]) was 4.67%. The inhibition at 0.02 µM (HBV rcDNA; [1]) was -12.9%, the inhibition at 0.02 µM (HBV rcDNA; [2]) was -12.9% and the inhibition at 0.039 µM (HBV rcDNA; [1]) was 35.9%. The inhibition at 0.039 µM (HBV rcDNA; [2]) was 35.9%, the inhibition at 0.156 µM (HBV rcDNA; [1]) was 77.1% and the inhibition at 0.156 µM (HBV rcDNA; [2]) was 77.1%. The inhibition at 1.25 µM (HBV rcDNA; [1]) was 98.4%, the inhibition at 1.25 µM (HBV rcDNA; [2]) was 98.4% and the inhibition at 0.009 µM (HBV rcDNA; Hepatitis B virus, HepDE19, Expt 3, TDF 0.009 μM alone) was 32.5%. The inhibition at 0.083 µM (HBV rcDNA; Hepatitis B virus, HepDE19, Expt 3, TDF 0.083 μM alone) was 76%, the inhibition at 0.75 µM (HBV rcDNA; Hepatitis B virus, HepDE19, Expt 3, TDF 0.750 μM alone) was 97% and the EC50 (HBV rcDNA; Hepatitis B virus) was 64 nM.
